The values below come from patent US20240316047A1, “INHIBITORS OF RNA HELICASE DHX9 AND USES THEREOF” (ACCENT THERAPEUTICS, INC., priority 2022, published 2024).

The target of the assay is Human recombinant DHX9 protein (Homo sapiens (Human), UniProt Q08211). As to the kind of experiment: DHX9 ATPase assay (ADP-Glo). It is filed as biochemical. Particulars: for IC50: read-out: DHX9 Biochemical Inflection Point.
Human recombinant DHX9 protein, sequence (Q08211 whole entry): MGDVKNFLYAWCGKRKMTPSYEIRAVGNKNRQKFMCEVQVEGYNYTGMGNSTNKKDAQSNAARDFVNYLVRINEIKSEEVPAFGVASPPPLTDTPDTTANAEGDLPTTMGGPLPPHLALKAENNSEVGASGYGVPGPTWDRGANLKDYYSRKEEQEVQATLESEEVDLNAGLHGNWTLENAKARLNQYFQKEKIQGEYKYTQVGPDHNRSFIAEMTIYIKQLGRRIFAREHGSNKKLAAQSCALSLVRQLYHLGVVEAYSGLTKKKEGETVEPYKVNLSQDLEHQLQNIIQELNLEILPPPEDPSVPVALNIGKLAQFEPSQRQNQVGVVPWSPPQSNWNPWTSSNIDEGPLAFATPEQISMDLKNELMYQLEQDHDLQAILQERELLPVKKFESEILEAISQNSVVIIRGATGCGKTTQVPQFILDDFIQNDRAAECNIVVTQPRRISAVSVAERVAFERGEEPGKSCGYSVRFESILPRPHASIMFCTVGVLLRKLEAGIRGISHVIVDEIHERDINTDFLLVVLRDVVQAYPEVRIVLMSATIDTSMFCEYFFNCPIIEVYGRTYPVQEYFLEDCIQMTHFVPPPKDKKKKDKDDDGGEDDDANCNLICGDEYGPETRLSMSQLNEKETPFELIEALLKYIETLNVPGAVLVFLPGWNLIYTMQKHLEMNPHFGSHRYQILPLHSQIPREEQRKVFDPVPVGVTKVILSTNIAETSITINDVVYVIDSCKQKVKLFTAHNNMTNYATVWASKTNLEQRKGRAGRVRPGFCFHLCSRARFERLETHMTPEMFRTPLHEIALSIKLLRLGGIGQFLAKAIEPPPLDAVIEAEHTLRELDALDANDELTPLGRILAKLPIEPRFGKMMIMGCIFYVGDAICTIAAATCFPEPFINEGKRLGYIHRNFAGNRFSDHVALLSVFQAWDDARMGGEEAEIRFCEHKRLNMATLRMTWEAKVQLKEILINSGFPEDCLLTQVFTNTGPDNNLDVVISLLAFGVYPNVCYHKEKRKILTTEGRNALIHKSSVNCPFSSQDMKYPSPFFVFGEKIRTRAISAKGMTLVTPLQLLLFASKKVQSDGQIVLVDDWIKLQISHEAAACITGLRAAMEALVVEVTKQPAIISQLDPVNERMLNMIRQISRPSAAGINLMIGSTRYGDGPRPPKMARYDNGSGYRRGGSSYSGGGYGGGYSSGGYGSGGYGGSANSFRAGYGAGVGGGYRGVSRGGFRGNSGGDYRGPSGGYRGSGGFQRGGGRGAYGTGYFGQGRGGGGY

As to `COC1CN(c2ccc(-c3cc(C(=O)Nc4cc(Cl)cc(NS(C)(=O)=O)c4)cn3C)nc2)C1` [Example 465], the “DHX9 Biochemical Max Inhibition” value amounted to 85.3 and the IC50 turned out to be 6.8 nM.

`Cn1cc(C(=O)Nc2cc(Cl)cc(NS(C)(=O)=O)c2)cc1-c1ncc(N2CC(F)C2)cc1F` [Example 466]: the “DHX9 Biochemical Max Inhibition” value is reported as 82.2 and the IC50 is 11.1 nM.

With `Cc1sc(C(=O)Nc2cc(Cl)cc(NS(C)(=O)=O)c2)cc1-c1ncc(N2CCC3(CC2)CC3)cc1F` [Example 467], the “DHX9 Biochemical Max Inhibition” value is 99.3 and the IC50 was determined as 155 nM.

With `Cn1cc(C(=O)Nc2cc(Cl)cc(NS(C)(=O)=O)c2)cc1-c1ncc(N2CCC3(CC2)CC3)cc1F` [Example 468], the “DHX9 Biochemical Max Inhibition” value is reported as 96 and the IC50 was found to be 132 nM.

For the molecule `Cn1cc(C(=O)Nc2cc(Cl)cc(NS(C)(=O)=O)c2)cc1-c1ncc(N2CCC(F)(F)CC2)cc1F` [Example 469], the “DHX9 Biochemical Max Inhibition” value is 83.4 and the IC50 worked out at 22.5 nM.

Turning to `Cn1cc(C(=O)Nc2cc(Cl)cc(NS(C)(=O)=O)c2)cc1-c1ncc(N2CC[Si](C)(C)CC2)cc1F` [Example 470], the “DHX9 Biochemical Max Inhibition” value was determined as 93.8 and the IC50 is 125 nM.

Consider `Cc1sc(C(=O)Nc2cc(Cl)cc(NS(C)(=O)=O)c2)cc1-c1ncc(N2CCC(F)(F)CC2)cc1F` [Example 471], for which the “DHX9 Biochemical Max Inhibition” value is given as 72.1 and the IC50 is 29.2 nM.

`Cn1cc(C(=O)Nc2cc(Cl)cc(NS(C)(=O)=O)c2)cc1-c1ncc(N2CCC(C(F)(F)F)CC2)cc1F` [Example 472]: the “DHX9 Biochemical Max Inhibition” value came out at 60.9 and the IC50 was 211 nM.

Turning to `Cc1sc(C(=O)Nc2cc(Cl)cc(NS(C)(=O)=O)c2)cc1-c1ncc(N2CC[Si](C)(C)CC2)cc1F` [Example 473], the “DHX9 Biochemical Max Inhibition” value turned out to be 54.5 and the IC50 came out at 313 nM.

As to `Cc1sc(C(=O)Nc2cc(Cl)cc(NS(C)(=O)=O)c2)cc1-c1ncc(N2CCC3(CC2)COC3)cc1F` [Example 474], the “DHX9 Biochemical Max Inhibition” value is reported as 70.4 and the IC50 is 11.7 nM.

Take `Cn1cc(C(=O)Nc2cc(Cl)cc(NS(C)(=O)=O)c2)cc1-c1ncc(N2CCC3(CC2)COC3)cc1F` [Example 475]: the “DHX9 Biochemical Max Inhibition” value is listed as 64.7 and the IC50 was determined as 13.6 nM.

Take `Cc1sc(C(=O)Nc2cc(Cl)cc(NS(C)(=O)=O)c2)cc1-c1ncc(N2CC3C(C2)C3(C)C)cc1F` (stereo not shown) [Example 476]: the “DHX9 Biochemical Max Inhibition” value stood at 61.1 and the IC50 stood at 312 nM.

In the case of `Cc1sc(C(=O)Nc2cc(Cl)cc(NS(C)(=O)=O)c2)cc1-c1ncc(N2CCC3(CC2)CC3(F)F)cc1F` [Example 478], the “DHX9 Biochemical Max Inhibition” value was 66.8 and the IC50 is 150 nM.

In the case of `Cc1sc(C(=O)Nc2cc(Cl)cc(NS(C)(=O)=O)c2)cc1-c1ncc(N2CCC(F)(F)C2)cn1` [Example 479], the “DHX9 Biochemical Max Inhibition” value stood at 69.6 and the IC50 was 17.5 nM.

For `Cc1sc(C(=O)Nc2cc(Cl)cc(NS(C)(=O)=O)c2)cc1-c1ncc(N2CCC3(C2)CC3(F)F)cc1F` (stereo not shown) [Example 480], the “DHX9 Biochemical Max Inhibition” value was found to be 67.4 and the IC50 is 146 nM.

Consider `Cc1sc(C(=O)Nc2cc(Cl)cc(NS(C)(=O)=O)c2)cc1-c1ncc(N2CCC(C(F)(F)F)CC2)cc1F` [Example 481], for which the “DHX9 Biochemical Max Inhibition” value turned out to be 62.1 and the IC50 came to 204 nM.

Turning to `Cc1sc(C(=O)Nc2cc(Cl)cc(NS(C)(=O)=O)c2)cc1-c1ncc(N2CCCC(F)(F)C2)cc1F` [Example 482], the “DHX9 Biochemical Max Inhibition” value came to 63.3 and the IC50 stood at 66.5 nM.

As for `Cn1cc(C(=O)Nc2cc(Cl)cc(NS(C)(=O)=O)c2)cc1-c1ncc(N2CCCC(F)(F)C2)cc1F` [Example 483], the “DHX9 Biochemical Max Inhibition” value was determined as 56.4 and the IC50 is 67.3 nM.

Regarding `Cc1sc(C(=O)Nc2cc(Cl)cc(NS(C)(=O)=O)c2)cc1-c1ncc(N2CCC(F)(F)C2)cc1F` [Example 484], the “DHX9 Biochemical Max Inhibition” value came out at 66.5 and the IC50 was 33.5 nM.

For the molecule `Cc1sc(C(=O)Nc2cc(Cl)cc(NS(C)(=O)=O)c2)cc1-c1ccc(N2CCC(F)(F)C2)cn1` [Example 485], the “DHX9 Biochemical Max Inhibition” value is reported as 66.5 and the IC50 stood at 19.1 nM.

For `CS(=O)(=O)Nc1cc(Cl)cc(NC(=O)c2cc(-c3ncc(N4CC(F)(F)C4)cn3)cs2)c1` [Example 486], the “DHX9 Biochemical Max Inhibition” value stood at 61.7 and the IC50 was 17.9 nM.

On to `CS(=O)(=O)Nc1cc(Cl)cc(NC(=O)c2cc(-c3ccc(N4CC(F)(F)C4)cn3)cs2)c1` [Example 487], for which the “DHX9 Biochemical Max Inhibition” value is 64.3 and the IC50 is 25.3 nM.

With `CS(=O)(=O)Nc1cc(Cl)cc(NC(=O)c2cc(-c3ncc(N4CC(F)(F)C4)cc3F)cs2)c1` [Example 488], the “DHX9 Biochemical Max Inhibition” value came to 61.1 and the IC50 turned out to be 67.9 nM.

In the case of `Cc1sc(C(=O)Nc2cc(Cl)cc(NS(C)(=O)=O)c2)cc1-c1ncc(N2CC(C(F)(F)F)C2)cn1` [Example 489], the “DHX9 Biochemical Max Inhibition” value is listed as 68.7 and the IC50 was 29.9 nM.

Turning to `Cn1cc(C(=O)Nc2cc(Cl)cc(NS(C)(=O)=O)c2)cc1-c1ncc(N2CC3(C2)CC(F)(F)C3)cn1` [Example 492], the “DHX9 Biochemical Max Inhibition” value was 62.3 and the IC50 is 6.6 nM.

On to `Cn1cc(C(=O)Nc2cc(Cl)cc(NS(C)(=O)=O)c2)cc1-c1ncc(N2CC(C(F)(F)F)C2)cn1` [Example 493], for which the “DHX9 Biochemical Max Inhibition” value amounted to 67 and the IC50 was 24.8 nM.

Consider `Cn1cc(C(=O)Nc2cc(Cl)cc(NS(C)(=O)=O)c2)cc1-c1ncc(N2CCC3(C2)CC3(F)F)cn1` (stereo not shown) [Example 494], for which the “DHX9 Biochemical Max Inhibition” value was 55.9 and the IC50 is 26.9 nM.

In the case of `Cn1cc(C(=O)Nc2cc(Cl)cc(NS(C)(=O)=O)c2)cc1-c1ccc(N2CCC3(C2)CC3(F)F)cn1` (stereo not shown) [Example 495], the “DHX9 Biochemical Max Inhibition” value worked out at 61.8 and the IC50 is 85.4 nM.

As to `Cc1sc(C(=O)Nc2cc(Cl)cc(NS(C)(=O)=O)c2)cc1-c1ccc(N2CC(C(F)(F)F)C2)cn1` [Example 496], the “DHX9 Biochemical Max Inhibition” value stood at 71.9 and the IC50 is 19.5 nM.

For `Cn1cc(C(=O)Nc2cc(Cl)cc(NS(C)(=O)=O)c2)cc1-c1ccc(N2CC(C(F)(F)F)C2)cn1` [Example 497], the “DHX9 Biochemical Max Inhibition” value came out at 65.2 and the IC50 was 31.6 nM.

Take `Cn1cc(C(=O)Nc2cc(Cl)cc(NS(C)(=O)=O)c2)cc1-c1ccc(N2CC3(C2)CC(F)(F)C3)cn1` [Example 498]: the “DHX9 Biochemical Max Inhibition” value was found to be 65.4 and the IC50 worked out at 38 nM.

With `Cc1sc(C(=O)Nc2cc(Cl)cc(NS(C)(=O)=O)c2)cc1-c1ccc(N2CC3(C2)CC(F)(F)C3)cn1` [Example 499], the “DHX9 Biochemical Max Inhibition” value was determined as 68.1 and the IC50 was 35.7 nM.

Take `Cc1sc(C(=O)Nc2cc(F)cc(NS(C)(=O)=O)c2)cc1-c1ncc(N2CC(C(F)(F)F)C2)cc1F` [Example 501]: the “DHX9 Biochemical Max Inhibition” value is on record as 73.3 and the IC50 came to 70.9 nM.

For the molecule `Cc1sc(C(=O)Nc2cc(Cl)cc(NS(C)(=O)=O)c2)cc1-c1ncc(F)cc1N1CCS(=O)(=O)CC1` [Example 503], the “DHX9 Biochemical Max Inhibition” value is recorded as 63.7 and the IC50 stood at 39.7 nM.

On to `CC(=O)N1CCN(c2cc(F)cnc2-c2cc(C(=O)Nc3cc(Cl)cc(NS(C)(=O)=O)c3)sc2C)CC1` [Example 504], for which the “DHX9 Biochemical Max Inhibition” value worked out at 65.9 and the IC50 came out at 23.5 nM.

On to `COC1CCN(c2cc(F)cnc2-c2cc(C(=O)Nc3cc(Cl)cc(NS(C)(=O)=O)c3)sc2C)C1` (stereo not shown) [Example 505], for which the “DHX9 Biochemical Max Inhibition” value was determined as 54.3 and the IC50 is 46.4 nM.

Take `Cc1sc(C(=O)Nc2cc(Cl)cc(NS(C)(=O)=O)c2)cc1-c1ncc(F)cc1N1CCN(S(C)(=O)=O)CC1` [Example 506]: the “DHX9 Biochemical Max Inhibition” value was 47.4 and the IC50 was 184 nM.

For `Cc1sc(C(=O)Nc2cc(Cl)cc(NS(C)(=O)=O)c2)cc1-c1ncc(F)cc1N1CCC2(CC1)CC2` [Example 507], the “DHX9 Biochemical Max Inhibition” value is listed as 52.9 and the IC50 came out at 1510 nM.

With `CS(=O)(=O)Nc1cc(Cl)cc(NC(=O)c2cc(-c3ncc(N4CC(C(F)(F)F)C4)cn3)n(CC(F)F)c2)c1` [Example 508], the “DHX9 Biochemical Max Inhibition” value is on record as 67.1 and the IC50 worked out at 96.5 nM.

For `CCS(=O)(=O)Nc1cc(Cl)cc(NC(=O)c2cc(-c3ncc(N4CC(F)C4)cn3)c(C)s2)c1` [Example 509], the “DHX9 Biochemical Max Inhibition” value came out at 90.9 and the IC50 was 4 nM.

On to `Cc1sc(C(=O)Nc2cc(Cl)cc(NS(C)(=O)=O)c2)cc1-c1ncc(N2CC(F)(F)C2)cn1` [Example 510], for which the “DHX9 Biochemical Max Inhibition” value came to 83.7 and the IC50 was 8.2 nM.

With `Cc1sc(C(=O)Nc2cc(Cl)cc(NS(C)(=O)=O)c2)cc1-c1ncc(N2CC3(C2)CC(F)(F)C3)cc1F` [Example 511], the “DHX9 Biochemical Max Inhibition” value is listed as 89.8 and the IC50 came to 51.1 nM.

`Cc1sc(C(=O)Nc2cc(Cl)cc(NS(C)(=O)=O)c2)cc1-c1ncc(N2CCC3(COC3)C2)cc1F` [Example 512]: the “DHX9 Biochemical Max Inhibition” value is reported as 74.3 and the IC50 worked out at 10.9 nM.

On to `CC(C)Oc1cc(N2CC(F)(F)C2)cnc1-c1cc(C(=O)Nc2cc(Cl)cc(NS(C)(=O)=O)c2)cn1C` [Example 513], for which the “DHX9 Biochemical Max Inhibition” value turned out to be 56.4 and the IC50 was 77.7 nM.

Regarding `Cc1sc(C(=O)Nc2cc(Cl)cc(NS(C)(=O)=O)c2)cc1-c1ncc(N2CC(F)(F)C2)cc1OC1CCC1` [Example 514], the “DHX9 Biochemical Max Inhibition” value turned out to be 73.8 and the IC50 was determined as 73.3 nM.

Turning to `COC1CCN(c2ccc(-c3cc(C(=O)Nc4cc(Cl)cc(NS(C)(=O)=O)c4)cn3C)nc2)CC1` [Example 515, N-(3-chloro-5-methanesulfonamidophenyl)-5-[5-(4-methoxypiperidin-1-yl)pyridin-2-yl]-1-methyl-1H-pyrrole-3-carboxamide], the “DHX9 Biochemical Max Inhibition” value worked out at 73.9 and the IC50 came to 1.6 nM.

Regarding `Cn1cc(C(=O)Nc2cc(Cl)cc(NS(C)(=O)=O)c2)cc1-c1ncc(N2CCC3(CC2)CC3(F)F)cc1F` [Example 518], the “DHX9 Biochemical Max Inhibition” value is 56.7 and the IC50 is 153 nM.
